The target in this assay is T1, YME1LAAA (monomeric AAA+ domain) (Homo sapiens, UniProt Q96TA2).
T1 sequence (Q96TA2 317-588): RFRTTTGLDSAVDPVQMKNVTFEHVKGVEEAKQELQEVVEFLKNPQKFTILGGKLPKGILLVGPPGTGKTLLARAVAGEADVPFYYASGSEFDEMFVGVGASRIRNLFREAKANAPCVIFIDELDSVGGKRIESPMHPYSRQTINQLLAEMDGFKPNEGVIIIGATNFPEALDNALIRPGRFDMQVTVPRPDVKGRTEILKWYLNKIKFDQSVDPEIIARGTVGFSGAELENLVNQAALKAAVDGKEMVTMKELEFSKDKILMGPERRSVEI
Kind of assay: methyl-TROSY NMR titration. In kind it is binding.

Our source for the Kd values is publication doi:10.1101/2025.01.30.635686v1 (biorxiv, 2025).

For the molecule `Nc1ncnc2c1ncn2[C@@H]1O[C@H](COP(=O)(O)OP(=O)(O)O)[C@@H](O)[C@H]1O` [ADP], binding was put at a Kd of 4.6 ± 2.3 µM.
